tested on: HEK293T cells carrying the ATF4 luciferase reporter; experiment: ATF4-Luc assay (ATF4 luciferase reporter, tunicamycin-treated cells); format: cell-based; conditions: Homo sapiens, HEK-293T, 1 μg/mL tunicamycin, 7 hours
Outline: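 A stable HEK293T reporter line was made by placing the full-length human ATF4 5′-UTR ahead of a firefly luciferase sequence without its start methionine, delivered by retroviral transduction and puromycin selection. Cells were seeded at 30,000 per well in polylysine-coated 384-well plates, exposed next day to 1 μg/mL tunicamycin plus compound for 7 hours, and luminescence was read with One Glo.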

| SMILES | EC50 [nM] |
| --- | --- |
| O=C(COc1ccc(Cl)c(Cl)c1)NC12CCC(NC(=O)c3cc(C(F)F)no3)(CC1)NC2=O [Compound 1048, N-{4-[2-(3,4-dichlorophenoxy)acetamido]-3-oxo-2-azabicyclo[2.2.2]octan-1-yl}-3-(difluoromethyl)-1,2-oxazole-5-carboxamide] | > 2000 |
| Cc1cc(C(=O)NC23CCC(NC(=O)COc4ccc(Cl)c(Cl)c4)(CC2)C(=O)N3)on1 [Compound 1049, N-{4-[2-(3,4-dichlorophenoxy)acetamido]-3-oxo-2-azabicyclo[2.2.2]octan-1-yl}-3-methyl-1,2-oxazole-5-carboxamide] | > 2000 |
| O=C(COc1ccc(Cl)c(F)c1)NC12CCC(NC(=O)c3cc(C(F)F)no3)(CC1)NC2=O [Compound 1050, N-{4-[2-(4-chloro-3-fluorophenoxy)acetamido]-3-oxo-2-azabicyclo[2.2.2]octan-1-yl}-3-(difluoromethyl)-1,2-oxazole-5-carboxamide] | > 2000 |
| Cc1cc(C(=O)NC23CCC(NC(=O)COc4ccc(Cl)c(F)c4)(CC2)C(=O)N3)on1 [Compound 1051, N-{4-[2-(4-chloro-3-fluorophenoxy)acetamido]-3-oxo-2-azabicyclo[2.2.2]octan-1-yl}-3-methyl-1,2-oxazole-5-carboxamide] | > 2000 |
| O=C(COc1ccc(Cl)c(Cl)c1)NC12CCC(NC(=O)c3coc(C(F)F)n3)(CC1)C[C@@H]2O [Compound 1052, N-{(3S)-4-[2-(3,4-dichlorophenoxy)acetamido]-3-hydroxybicyclo[2.2.2]octan-1-yl}-2-(difluoromethyl)-1,3-oxazole-4-carboxamide] | < 50 |
| O=C(NC12CCC(NC(=O)c3cnc(-c4ccccc4)o3)(CC1)[C@@H](O)C2)c1cnc(-c2ccccc2)o1 [Compound 1053, N,N′-[(2S)-2-hydroxybicyclo[2.2.2]octane-1,4-diyl]bis(2-phenyl-1,3-oxazole-5-carboxamide)] | < 50 |
| O=C(NC12CCC(NC(=O)c3cnc(-c4ccccc4)o3)(CC1)C2)c1cnc(-c2ccccc2)o1 [Compound 1055, N,N′-(bicyclo[2.2.1]heptane-1,4-diyl)bis(2-phenyl-1,3-oxazole-5-carboxamide)] | 50 to 250 |
| Cc1cnc(C(=O)NC23CC(NC(=O)c4cnc(-c5ccccc5)o4)(C2)C3)cn1 [Compound 1056, 5-methyl-N-{3-[(2-phenyl-1,3-oxazole-5-carbonyl)amino]bicyclo[1.1.1]pentan-1-yl}pyrazine-2-carboxamide] | 250 to 1000 |
| O=C(NC12CC(NC(=O)c3cnc(-c4ccccc4)o3)(C1)C2)c1cnc(-c2ccccc2)o1 [Compound 1057, N,N′-(bicyclo[1.1.1]pentane-1,3-diyl)bis(2-phenyl-1,3-oxazole-5-carboxamide)] | < 50 |
| O=C(NC12CC(NC(=O)c3cnc(-c4ccccc4)o3)(C1)C2)c1cnc(C(F)F)cn1 [Compound 1058, 5-(difluoromethyl)-N-{3-[(2-phenyl-1,3-oxazole-5-carbonyl)amino]bicyclo[1.1.1]pentan-1-yl}pyrazine-2-carboxamide] | 50 to 250 |
| O=C(CO)Nc1cc(F)c(F)cc1C(=O)NC12CC(NC(=O)COc3ccc(Cl)c(F)c3)(C1)C2 [Compound 1059, N-{3-[2-(4-chloro-3-fluorophenoxy)acetamido]bicyclo[1.1.1]pentan-1-yl}-4,5-difluoro-2-(2-hydroxyacetamido)benzamide] | 50 to 250 |
| O=C(COc1ccc(Cl)c(F)c1)NC12CC(NC(=O)c3cc(F)c(F)cc3NCCO)(C1)C2 [Compound 1060, N-{3-[2-(4-chloro-3-fluorophenoxy)acetamido]bicyclo[1.1.1]pentan-1-yl}-4,5-difluoro-2-[(2-hydroxyethyl)amino]benzamide] | 250 to 1000 |
| COCC(=O)Nc1cc(F)c(F)cc1C(=O)NC12CC(NC(=O)COc3ccc(Cl)c(F)c3)(C1)C2 [Compound 1061, N-{3-[2-(4-chloro-3-fluorophenoxy)acetamido]bicyclo[1.1.1]pentan-1-yl}-4,5-difluoro-2-(2-methoxyacetamido)benzamide] | 250 to 1000 |
| Cc1nc(C(=O)NC23CCC(NC(=O)COc4ccc(Cl)c(F)c4)(CC2)[C@H](O)C3)n[nH]1 [Compound 1062, N-{(3R)-4-[2-(4-chloro-3-fluorophenoxy)acetamido]-3-hydroxybicyclo[2.2.2]octan-1-yl}-5-methyl-1H-1,2,4-triazole-3-carboxamide] | 250 to 1000 |
| Cc1csc(C(=O)NC23CCC(NC(=O)COc4ccc(F)c(Cl)c4)(CC2)[C@@H](O)C3)n1 [Compound 1063, N-{(3S)-4-[2-(3-chloro-4-fluorophenoxy)acetamido]-3-hydroxybicyclo[2.2.2]octan-1-yl}-4-methyl-1,3-thiazole-2-carboxamide] | 250 to 1000 |
| Cc1csc(C(=O)NC23CCC(NC(=O)COc4ccc(Cl)cc4)(CC2)[C@@H](O)C3)n1 [Compound 1064, N-{(3S)-4-[2-(4-chlorophenoxy)acetamido]-3-hydroxybicyclo[2.2.2]octan-1-yl}-4-methyl-1,3-thiazole-2-carboxamide] | 250 to 1000 |

| SMILES | EC50 [nM] |
| --- | --- |
| Cc1csc(C(=O)NC23CCC(NC(=O)COc4ccc(Cl)c(F)c4)(CC2)[C@@H](O)C3)n1 [Compound 1065, N-{(3S)-4-[2-(4-chloro-3-fluorophenoxy)acetamido]-3-hydroxybicyclo[2.2.2]octan-1-yl}-4-methyl-1,3-thiazole-2-carboxamide] | < 50 |
| O=C(COc1ccc(Cl)c(F)c1)NC12CCC(NC(=O)c3ccn(-c4ccc(Cl)c(Cl)c4)n3)(CC1)[C@@H](O)C2 [Compound 1066, N-{(2S)-4-[2-(4-chloro-3-fluorophenoxy)acetamido]-2-hydroxybicyclo[2.2.2]octan-1-yl}-1-(3,4-dichlorophenyl)-1H-pyrazole-3-carboxamide] | < 50 |
| Cc1nc(C(=O)NC23CC(NC(=O)COc4ccc(Cl)c(F)c4)(C2)C3)n(C)n1 [Compound 1067, N-{3-[2-(4-chloro-3-fluorophenoxy)acetamido]bicyclo[1.1.1]pentan-1-yl}-1,3-dimethyl-1H-1,2,4-triazole-5-carboxamide] | 50 to 250 |
| O=C(COc1ccc(Cl)c(F)c1)NC12CCC(NC(=O)c3n[nH]c(-c4ccc(Cl)cc4)n3)(CC1)C[C@@H]2O [Compound 1068, N-{(3S)-4-[2-(4-chloro-3-fluorophenoxy)acetamido]-3-hydroxybicyclo[2.2.2]octan-1-yl}-5-(4-chlorophenyl)-1H-1,2,4-triazole-3-carboxamide] | > 2000 |
| COc1ncc(OCC(=O)NC23CCC(NC(=O)c4cc(C(F)F)no4)(CC2)C[C@@H]3O)cn1 [Compound 1069, 3-(difluoromethyl)-N-[(3S)-3-hydroxy-4-{2-[(2-methoxypyrimidin-5-yl)oxy]acetamido}bicyclo[2.2.2]octan-1-yl]-1,2-oxazole-5-carboxamide] | 1000 to 2000 |
| O=C(COc1cccc(F)c1)NC12CCC(NC(=O)c3cc(C(F)F)no3)(CC1)C[C@@H]2O [Compound 1070, 3-(difluoromethyl)-N-{(3S)-4-[2-(3-fluorophenoxy)acetamido]-3-hydroxybicyclo[2.2.2]octan-1-yl}-1,2-oxazole-5-carboxamide] | 50 to 250 |
| O=C(COc1ccccn1)NC12CCC(NC(=O)c3cc(C(F)F)no3)(CC1)C[C@@H]2O [Compound 1071, 3-(difluoromethyl)-N-[(3S)-3-hydroxy-4-{2-[(pyridin-2-yl)oxy]acetamido}bicyclo[2.2.2]octan-1-yl]-1,2-oxazole-5-carboxamide] | > 2000 |
| O=C(COc1cccc(Cl)c1)NC12CCC(NC(=O)c3cc(C(F)F)no3)(CC1)C[C@@H]2O [Compound 1072, N-{(3S)-4-[2-(3-chlorophenoxy)acetamido]-3-hydroxybicyclo[2.2.2]octan-1-yl}-3-(difluoromethyl)-1,2-oxazole-5-carboxamide] | 50 to 250 |
| COc1ncc(C(=O)NC23CCC(NC(=O)COc4ccc(Cl)c(F)c4)(CC2)[C@@H](O)C3)cn1 [Compound 1073, N-{(3S)-4-[2-(4-chloro-3-fluorophenoxy)acetamido]-3-hydroxybicyclo[2.2.2]octan-1-yl}-2-methoxypyrimidine-5-carboxamide] | 50 to 250 |
| COc1ncc(C(=O)NC23CCC(NC(=O)COc4ccc(C(F)(F)F)c(F)c4)(CC2)[C@@H](O)C3)cn1 [Compound 1074, N-[(3S)-4-{2-[3-fluoro-4-(trifluoromethyl)phenoxy]acetamido}-3-hydroxybicyclo[2.2.2]octan-1-yl]-2-methoxypyrimidine-5-carboxamide] | 50 to 250 |
| O=C(COc1ccc(Cl)c(F)c1)NC12CCC(NC(=O)c3nc4cc(F)c(F)cc4o3)(CC1)C[C@@H]2O [Compound 1075, N-{(3S)-4-[2-(4-chloro-3-fluorophenoxy)acetamido]-3-hydroxybicyclo[2.2.2]octan-1-yl}-5,6-difluoro-1,3-benzoxazole-2-carboxamide] | < 50 |
| O=C(COc1ccc(C(F)(F)F)nc1)NC12CCC(NC(=O)c3cc4cc(Cl)ccc4o3)(CC1)C[C@@H]2O [Compound 1076, 5-chloro-N-[(3S)-3-hydroxy-4-(2-{[6-(trifluoromethyl)pyridin-3-yl]oxy}acetamido)bicyclo[2.2.2]octan-1-yl]-1-benzofuran-2-carboxamide] | 50 to 250 |
| O=C(COc1ccc(Cl)c(F)c1)NC12CCC(NC(=O)c3cc4cc(Cl)ccc4o3)(CC1)C[C@@H]2O [Compound 1077, 5-chloro-N-{(3S)-4-[2-(4-chloro-3-fluorophenoxy)acetamido]-3-hydroxybicyclo[2.2.2]octan-1-yl}-1-benzofuran-2-carboxamide] | < 50 |
| O=C(CCOc1ccc(Cl)c(F)c1)NC12CCC(NC(=O)c3cc(C(F)F)no3)(CC1)C[C@@H]2O [Compound 1078, N-{(3S)-4-[3-(4-chloro-3-fluorophenoxy)propanamido]-3-hydroxybicyclo[2.2.2]octan-1-yl}-3-(difluoromethyl)-1,2-oxazole-5-carboxamide] | 250 to 1000 |
| O=C(CCOc1ccc(Cl)c(F)c1)NC12CC(NC(=O)c3ccc(OC(F)(F)F)cn3)(C1)C2 [Compound 1079, N-{3-[3-(4-chloro-3-fluorophenoxy)propanamido]bicyclo[1.1.1]pentan-1-yl}-5-(trifluoromethoxy)pyridine-2-carboxamide] | > 2000 |

Source: patent US20240307382A1, “MODULATORS OF THE INTEGRATED STRESS PATHWAY” (Calico Life Sciences LLC, priority 2017, published 2024)
